The test system of experiment [1] is anti-HIV-1 group O antibodies present in human serum. Kind of experiment: Antibody capture format: peptide on solid phase, bound antibody detected with peptide-HRP conjugate. In kind it is binding. The following applies: same peptide as Ag and as HRP conjugate (1:100). The procedure: In peptide 147-5, the N-terminal glycine was added to function as a spacer group, while the arginine in position 2 was added to enhance the solubility of the peptide in aqueous buffers. Both of these peptides were evaluated for their ability to be recognized by HIV-1 group O serum samples in an antibody capture format. In general, in such an assay, a peptide is bound to a solid phase and bivalent antibody presents in a sample binds to the peptide linked thereto. Bound antibody is subsequently detected using a conjugate made of the peptide in question coupled to horseradish peroxidase. The peptide-HRP conjugate binds to antibody which in turn is bound to the solid phase linked peptide. Methods suitable for preparing such conjugates may be found readily in the scientific literature and are well known to those versed in the art.
Microwell plates were pre-coated with either peptide 147-4 or 147-5. A dilution of a serum sample was then incubated for 1 hour at 37° C., after which the plate was washed extensively. A 1:100 dilution of either peptide 147-4 or 147-5 conjugated to HRP was then added and allowed to incubate for an additional hour at 37° C. Following this incubation, the plates were again thoroughly washed. The presence of bound conjugate was detected by addition of substrate for HRP (O-phenylenediamine) and H2O2.
The peptides were evaluated for their ability to be recognized by anti-HIV-1 group O antibodies present in human serum from infected individuals. All group O samples were confirmed to be positive for HIV-1 group O by reverse transcriptase-polymerase chain reaction (RT-PCR) amplification of viral gp41 sequences using O-specific primers. The identity of the PCR product was further confirmed by DNA sequencing.

The test system of experiment [2] is antibodies to HIV-1 group O. As to the kind of experiment: Chemiluminescent ELISA: serially diluted peptide on streptavidin-coated wells, serum ODS007b 1:60, anti-human IgG:HRP, luminol. In kind it is binding. The following applies: serum ODS007b 1:60. The procedure: To compare the performance of peptide 147 to another genuine group O sequence, the peptide corresponding to the ANT70 sequence was synthesized (peptide 80). Peptides 147 and 80 were dissolved at the same concentration, serially diluted, and bound to streptavidin-coated wells. A 1:60 dilution of serum sample ODS007b (see Table 3) was added to all wells and incubated. After washing, an anti-human IgG:HRP conjugate was added, incubated, and the wells again thoroughly washed. In this case, a chemiluminescent substrate was used, consisting of luminol and a peracid salt. The emitted light was quantified using a luminometer. The results are tabulated in Table 4 and shown graphically in FIG. 2.
(ELISA stands for enzyme-linked immunosorbent assay.)

The next experiment relates to group O antibody. As to the kind of experiment: ELISA with recombinant antigen coated at 0.5 μg/ml, group O sera, HRP-labeled mouse anti-human IgG. It is filed as binding. The procedure:
Performance of group M/group O “mosaic” constructs for group O antibody detection. The protein expressed as described was coated at a concentration of 0.5 μg/ml into the wells of microtiter plates for evaluation. Following coating of the protein, any remaining binding sites on the plastic were block with bovine serum albumin. Dilutions of group O sera were then tested for their ability to recognize the recombinant antigen. Bound antibodies were detected by incubation with HRP-labeled mouse anti-human IgG conjugate, and the bound conjugate was subsequently detected by addition of OPD and H2O2.

The test system of a further experiment is type B sample. As to the kind of experiment: ELISA with recombinant antigen coated at 0.5 μg/ml, type B sample. It is filed as binding, human.

With “EQQRLNSWGCKGRIICYTSARWH (HIV Consensus) [peptide 147-4, variant of peptide 147]”, the “Optical Density (OD)492” value in experiment [1] (negative control) is reported as 0.010 OD; in experiment [1] (sample ODS001 (1:200)) it was over 2.500 OD; in experiment [1] (sample ODS002 (1:175)) it was 0.785 OD; in experiment [1] (sample ODS006 (1:100)), 0.133 OD; in experiment [1] (sample ODS007 (1:1,500)) it was 0.241 OD.
The like results for “GRETLMQDQQRLNSWGCKGRIICYTSARWH (HIV Consensus) [peptide 147-5, longer variant of peptide 147 with N-terminal glycine spacer and arginine to enhance solubility]” were, in that order, 0.022 OD, over 2.500 OD, 1.343 OD, 0.266 OD and 0.316 OD.
As for “NQQLLSLWGCKGKLVCYTSVKWN (Human immunodeficiency virus type 1) [peptide 80, reference compound]”, the luminescent units came to 0.387 luminescent units in experiment [2] (peptide 0.020 ug/ml); 0.376 luminescent units in experiment [2] (peptide 0.039 ug/ml); 0.621 luminescent units in experiment [2] (peptide 0.078 ug/ml); 1.288 luminescent units in experiment [2] (peptide 0.156 ug/ml); 2.294 luminescent units in experiment [2] (peptide 0.313 ug/ml); 2.854 luminescent units in experiment [2] (peptide 0.625 ug/ml). Besides, the luminescent units in experiment [2] (peptide 1.250 ug/ml) is reported as 2.908 luminescent units; in experiment [2] (peptide 2.500 ug/ml), 1.821 luminescent units.

B1: DHFR-hES-MH: truncated dihydrofolate reductase fusion, mosaic group M/group O gp41 recombinant antigen with myc sequence and his6 tail (protein)
chain: MRGSGIMVRPLNSIVAVSQNMGIGKNGDLPWPPLRNEFKYFQRMTTTSSVEGKQNLVIMGRKTWFSIPEKNRPLKDRINIVLSRELKEPPRGAHFLAKSLDDALRLIEQPELASKVDMVWIVGGSSVYQEAMNQPGHLRLFVTRIMQEFESDTFFPEIDLGKYKLLPEYPGVLSEVQEEKGIKYKFEVYEKKGSRSARLLLSGIVQQQNNLLRAIEAQQHMLQLTAWGIKQLRARLQALETLMQNQQRLNSWGCKGRIICYTSARWHASWSNKSLEDIWDNMTWMQWDQQVNNVSSIIYDKILEAQDQQEENVRELLELDKWASLWNWFDITNWLWYIKIFIMIVGPEQKLISEEDLNSAVDHHHHHH
modifications: HIV Consensus
Take B1: the OD492 in the experiment with group O antibody (sample ODS001 (dilution)) is listed as 1.179 OD; in the experiment on group O antibody (sample ODS002 (dilution)) it was 1.323 OD; in the experiment on group O antibody (sample neg. control 1), −0.061 OD; in the experiment with type B sample, 0.685 OD.
